# Entries after “also recorded” stand apart in the source; their conditions may differ.
# Legend:
# [1] = test system: caspases 8, 9 and 3 in HeLa cells; assay: Caspase activation by Western blotting; type: cell-based, Human; settings: 50 μM
# Experimental: (§1) FIG. 4: Effect of Lappaol F on caspase activation. The indicated cells were treated with vehicle (DMSO) or Lappaol F (50 μM) for indicated time. Activation of caspases 8, 9 and 3 (indicated by reduced levels of procaspases) was analyzed by Western blotting using indicated antibodies. “C”: vehicle-treated control.
# (§2) Western blotting was done by standard protocols. Sources of the antibodies are as follows: antibodies for p21 and GAPDH were from Santa Cruz Biotechnology (Santa Cruz, Calif.); cyclin B1 antibody was from BD bioscience (San Jose, Calif.); p27 antibody was from Cell Signaling Technology (Danvers, Mass.). CDK1 and CDK2 were from Assay Biotechnology (Sunnyvale, Calif.). Northern blot analysis was performed. and a full-length p21 cDNA was used as a probe for detecting the expression of p21 mRNA.
# [2] = test system: caspases 8 and 9 in MCF-7 cells; assay: Caspase activation by Western blotting; type: cell-based, Human; settings: 50 μM
# Experimental: as §1, §2
# [3] = test system: caspases 8, 9 and 3 in MDA-MB-231 cells; assay: Caspase activation by Western blotting; type: cell-based, Human; settings: 50 μM
# Experimental: as §1, §2
# [4] = test system: p21 promoter in RKO p53-proficient (p53+/+) cells; assay: p21 promoter luciferase assay; type: cell-based, Human; settings: 50 μM, 24 hours
# Experimental: (§3) FIG. 6: Lappaol F induces p21-promoter activation in cells with wild-type p53 and defective-p53. A&B MCF-7, MDA-MB-231 and RKO cells were untreated (DMSO) or treated with Lappaol F (50 μM) for 48 hrs; cells were then split into two parts; one part was used to analyze p21 mRNA expression by Northern blotting (A) and another part was utilized for p21 protein analysis by Western blotting (B). A full-length p21 cDNA was used as a probe for Northern blot analysis. C & D. p21 promoter luciferase activity in Lappaol F-treated and untreated cells with different p53 status. RKO and MCF-7 cells express the wild type-p53 protein whereas MDA-MB-231 expressing the mutant-p53. Hela cells harbor human papilloma virus; and p53 protein is not functional in these cells. Cells, transfected with p21 promoter luciferase construct, were untreated (DMSO) or treated with Lappaol F (50 μM) for 24 hours then analyzed for luciferase activity.
# (§4) Luciferase assays were performed as follows. Briefly, cells transiently transfected with the p21-promoter luciferase construct were treated with or without Lappaol F (50 μM). Twenty-four hours later, luciferase activity of each cell lysate was analyzed using the Luciferase assay system (Thermo Scientific, Rockford, Ill.) with LUMAT LB9507 luminometer (Berthold Technologies, Germany).
# [5] = test system: p21 promoter in RKO p53-deficient (p53-/-) cells; assay: p21 promoter luciferase assay; type: cell-based, Human; settings: 50 μM, 24 hours
# Experimental: as §3, §4
# [6] = test system: RKO cells; assay: Mitotic index by DAPI staining; type: cell-based, Human; settings: 50 μM, 72 hours
# Experimental: (§5) FIG. 2: Lappaol F induces G1 and G2 cell cycle arrest. (A) Flow cytometry cell cycle analyses performed on cells treated with vehicle (DMSO) or Lappaol F (50 μM) for 72 hrs. (B) DAPI staining of RKO cells treated with Lappaol F (50 μM) for 72 hours. The number of mitotic cells over the total cells (mitotic index, MI) is also shown.
# (§6) Cell cycle profile was determined by flow cytometry as follows. For determining the mitotic index, cells treated with or without Lappaol F were stained with 4′, 6-diamidino-2-phenylindole (DAPI). The number of mitotic cells was counted under a fluorescence microscope. Over 600 cells were counted in each sample and experiments were repeated at least three times.
# [7] = test system: HeLa tumor xenografts; assay: HeLa xenograft tumor growth in nude mice; type: in vivo, BALB/c nude mice
# Text: All animal studies were approved and performed according to Animal Care and Use Guidelines of the Animal Ethics Committee at Guangzhou University of Chinese Medicine (Document No. syxk (Yue) 2008-0001). BALB/c nude mice (female, 4-5 weeks old) were first subcutaneously injected with 5×10^6 of HeLa cells on the back to establish tumor xenografts. Nine-days after tumor cell injection, mice with tumor volume of 90 mm^3-290 mm^3 were randomized into 3 groups; the average initial tumor volumes in each treatment group of mice were 161.28±23.9 mm^3 (for vehicle control), 160.7±17 7 mm^3 (for mice treated with Lappaol F 5 mg/kg) and 144.5±20 5 mm^3 (for mice treated with Lappaol F 10 mg/kg), respectively. Mice were then treated with Lappaol F (5 mg/kg/d, N=7; or 10 mg/kg/d, N=6) or with equivalent volume of vehicle (5% DMSO plus 5% Tween 80 in 5% glucose solution, 5 mL/kg/day, N=7) by intravenous injection for 15 days. Tumor size was monitored by measuring two perpendicular diameters with a caliper every 4 days. The tumor volume was calculated as volume=length×width^2×0.5. Cases of death and body weight in mice were monitored daily. The animal experiments were terminated on day 15 (tumor size exceeded a mean diameter of 20 mm in control animals) by sacrificing mice according to the guidelines. Tumor xenografts were then stripped and weighed. All results were expressed as Mean±standard error of the mean (SEM). Effects of various treatments were analyzed using the ONE-WAY ANOVA analysis and P-values <0.05 were considered statistically significant.
# [8] = test system: wild-type p53; assay: Wild-type p53 expression by Western blotting; type: cell-based, Human
# Experimental: (§7) FIG. 7: Lappaol F suppresses expression of mutant-p53 by reducing its half-life. A-C. Lappaol F has minimal effect on wild-type p53 protein expression in cells (MCF-7 and RKO) expressing wild-type p53 (A & C); however, Lappaol F strongly reduces mutant-p53 protein expression in MDA-MB-231, MDA-MB-468 and T47D cells (B & C). D & E. Treatment of Lappaol F reduces mutant-p53 protein half-life in MDA-MB-231 cells. Cells were first treated with or without with Lappaol F (50 μM) for 24 hours, cycloheximide (50 μg/ml) was then added into the cell culture medium for 0-8 hours and cells were harvested at 0, 2, 4, 6 and 8 hours after cycloheximide was added. Samples were subjected to Western blot analysis and the half-life of mutant p53 for cells treated with or without Lappaol F was determined F & G. Lappaol F decreases mutant p53 protein half-life in T47D cells. Mutant-p53 half-life was determined as described.
# as §2, with “Northern blot analysis was performed. and a full-length p21 cDNA was used as a probe for detecting the expression of p21 mRNA.” left out
# [9] = test system: MCF10A non-cancerous breast epithelial cells; assay: MTT assay / phase contrast microscopy on non-tumorigenic cells; type: cell-based, Human; settings: 50 μM, 3 days or prolonged to six days
# Experimental: (§8) FIG. 1: A. The chemical structure of Lappaol F. B & C. […] Cells shown were treated with or without Lappaol F (50 μM) for 72 hours. D & E. Results of 3-[4, 5-dimethylthiazol-2-yl]-2, 5-diphenyl tetrazolium bromide (MTT) assays showing Lappaol F inhibits tumor cell growth in time- and dose-dependent manners in different cancer cell lines. F & G. MCF10A non-tumorigenic breast epithelial cells treated with Lappaol F (50 μM) for 3 days (F) or 6 days (G). After treatment, cells were harvested for MTT assays (G) or photographs were taken under a phase contrast microscope (F). H. Results of colony formation assay showing that Lappaol F inhibits colony formation by A549 (lung), HCT116 (colon) and DU145 (prostate) tumor cells. I-N. Results of MTT assays showing Lappaol F suppresses cell growth in leukemia, melanoma and sarcoma cell lines.
# (§9) MTT cell proliferation assays were performed as follows. Briefly, cells seeded in 12-well plate with or without drug treatment were incubated with 0.5 mg/ml 3-[4, 5-dimethylthiazol-2-yl]-2, 5-diphenyl tetrazolium bromide (MTT) for 1-4 hours. The resulting formazan precipitate was dissolved in isopropanol with 0.04 M HCl. Absorbance was read with a Bio-Rad SmartSpec 3100 at 570 nm with background subtraction read at 690 nm.
# [10] = test system: mutant-p53; assay: Mutant-p53 expression by Western blotting; type: cell-based, Human
# Experimental: as §7
# as §2, with “Northern blot analysis was performed. and a full-length p21 cDNA was used as a probe for detecting the expression of p21 mRNA.” left out
# [11] = test system: p21 promoter (RKO, MCF-7, Hela, MDA-MB-231); assay: p21 promoter luciferase assay in four cell lines; type: cell-based, Human; settings: 50 μM, 24 hours
# Experimental: as §3, §4
# [12] = test system: p21, p27, CDK2, cyclin B and CDK1; assay: Cell cycle regulatory protein expression by Western blotting; type: cell-based, Human; settings: 50 μM, different cell lines
# Experimental: FIG. 3: Regulation of key cell cycle regulatory proteins by Lappaol F. A-D. The indicated cells were treated with vehicle (DMSO) or Lappaol F (50 μM) for indicated time and protein expression of different cell cycle regulatory protein was analyzed by Western blotting. “C”: vehicle-treated control.
# as §2
# [13] = test system: HeLa cells; assay: Flow cytometry cell cycle analysis; type: cell-based, Human; settings: 50 μM, 72 hrs
# Experimental: as §5, §6
# [14] = test system: RKO cells; assay: Flow cytometry cell cycle analysis; type: cell-based, Human; settings: 50 μM, 72 hrs
# Experimental: as §5, §6
# [15] = test system: MDA-MB-231 cells; assay: Flow cytometry cell cycle analysis; type: cell-based, Human; settings: 50 μM, 72 hrs
# Experimental: as §5, §6
# [16] = test system: MCF-7 cells; assay: Flow cytometry cell cycle analysis; type: cell-based, Human; settings: 50 μM, 72 hrs
# Experimental: as §5, §6
# [17] = test system: tumor cell lines of different tissue types; assay: Initial cytotoxic screening (colony formation, microscopy); type: cell-based, Human; settings: colon, breast, lung, cervix lines; 50 μM, 72 hours
# Experimental: as §8
# [18] = test system: c-Myc, MDM2 and HuR; assay: Oncogenic protein expression by Western blotting; type: cell-based, Human; settings: 50 μM
# Experimental: FIG. 8: Lappaol F down regulates the expression of several oncogenic proteins commonly overexpressed in human cancers and linked to oncogenic transformation. A-C. Lappaol F suppresses the expression of c-Myc (A), MDM2 (B) and HuR (C). Cells were untreated (“C”) or treated with Lappaol F (50 μM) for the indicated times and Western blot analyses were performed using the indicated antibodies.
# as §2
# [19] = test system: RKO cells; assay: MTT cell proliferation assay; type: cell-based, Human; settings: read-out: estimated absolute EC50 of cell growth suppression
# Experimental: as §9
# [20] = test system: MDA-MB-231 cells; assay: MTT cell proliferation assay; type: cell-based, Human; settings: read-out: estimated absolute EC50 of cell growth suppression
# Experimental: as §9
# [21] = test system: MCF-7 cells; assay: MTT cell proliferation assay; type: cell-based, Human; settings: read-out: estimated absolute EC50 of cell growth suppression
# Experimental: as §9
compound,measurement,setting,value
COc1cc([C@H]2Oc3c(OC)cc(C[C@H]4COC(=O)[C@@H]4Cc4cc(OC)c5c(c4)[C@H](CO)[C@@H](c4ccc(O)c(OC)c4)O5)cc3[C@@H]2CO)ccc1O [Lappaol F],caspase activation,[1],elicited caspases 9 and 3 activation
same,caspase activation,[2],no clear evidence of caspase activation
same,caspase activation,[3],"activation of caspases 8, 9 and 3 was observed"
same,induction of the p21 promoter,[4],3.5 fold
same,upregulation of p21 promoter activity,[5],8.3 folds
same,mitotic nuclei (mitotic index),[6],no mitotic nuclei were observed
same,inhibition of tumor growth relative to vehicle,"[7]; 5 mg/kg/day i.v., 15 days",54%
same,inhibition of tumor growth relative to vehicle,"[7]; 10 mg/kg/day i.v., 15 days",64%
same,lethality / body weight change in mice,"[7]; 5 and 10 mg/kg/day i.v., 15 days",without significant body weight changes; also recorded: did not observe lethality or weight loss
same,effect on HeLa xenografts by intraperitoneal injection,[7]; intraperitoneal injection,did not show any significant effect
same,levels of wild-type p53,[8]; MCF-7 cells,no significant influence
same,expression levels of wild-type-p53,[8]; RKO cells,did not significantly affect
same,cytotoxicity towards MCF10A non-cancerous breast epithelial cells,[9],minimal cytotoxicity
same,levels of mutant-p53,[10]; MDA-MB-231 cells,significantly reduced
same,mutant-p53 expression,[10]; MDA-MB-468 and T47D cells,strongly inhibited
same,p21 promoter activity,[11],significantly enhanced
same,expression levels of CDK inhibitors p21 and p27,[12],strikingly elevated
same,"levels of CDK2, cyclin B and CDK1",[12],clearly reduced
same,cell cycle arrest phase,[13],predominantly arrested in 2N G1-phase
same,sub-2N cell death population (sub-G1),[13],15%
same,cell cycle arrest phase,[14],mainly arrested in 4N G2- (or M)-phase
same,cell cycle arrest phase,[15],mainly arrested in 4N G2- (or M)-phase
same,cell cycle arrest phase,[16],predominantly arrested in 2N G1-phase
same,growth inhibitory effect against tumor cell lines,[17],strong growth inhibitory effect
same,"expression of c-Myc, MDM2 and HuR oncoproteins",[18],strongly down-regulates
same,EC50,[19],25.2 µM
same,EC50,[20],16.8 µM
same,EC50,[21],13.3 µM

# — patent US9895345B2, “Use of Lappaol F to inhibit tumor cell growth” (The Research Foundation Foundation for the State University …, priority 2013, dated 2018)
